Experimental data taken from patent publication US8017633B2, “Roflumilast for the treatment of diabetes mellitus” (Nycomed GmbH, priority 2005, dated 2011).

Tested on: C57BLKS db/db mice
Test: 10 days study: fasting blood glucose and oral glucose tolerance in db/db mice
Format: in vivo, mouse
Settings: for Blood glucose (15 min after glucose application) / Blood glucose (before glucose application): fasted 24 h; for Blood glucose (15 min after glucose application): 15 min after oral 1 g/kg glucose; for Blood glucose (before glucose application): 1 h after dose
Procedure: Female C57BLKS db/db mice obtained from M&B A/S (8680 Ry, Denmark) were used in the studies at 10 to 11 weeks of age. Mice were housed 10 per cage and allowed free access to water and standard laboratory diet for rodents (chow 3433, Provimi Kliba SA, 4303 Kaiseraugst, Switzerland).
Mice were allowed to acclimate to the local animal facilities for 1 week and retro-orbital blood samples were obtained 3 to 7 days prior to the start of the study.
Mice were treated with vehicle, Roflumilast or Roflumilast-N-Oxide, respectively once daily in the morning. Roflumilast or Roflumilast-N-Oxide was suspended in 4% methocel and applied via oral gavage using oral feeding & dosing needles (outer diameter: 1.5 mm, TSE GmbH, 61350 Bad Homburg, Germany). A volume of 10 ml/kg body weight was administered for each dose.
10 days studies: Mice were treated with vehicle, Roflumilast or Roflumilast-N-Oxide once daily in the morning. On day 9, mice were fasted for 24 hours by removing standard diet for laboratory animals 1 hour after drug application. On day 10, one hour after administration of vehicle, Roflumilast or Roflumilast-N-Oxide glucose tolerance was assessed by oral application of 1 g/kg/10 ml glucose. Blood was sampled before and 15 minutes after glucose application and levels of glucose (accu-chek, Roche Diagnostics GmbH, 68298 Mannheim, Germany) were measured.

[1] = Roflumilast 1 mg/kg oral once daily 10 days
[2] = Roflumilast 10 mg/kg oral once daily 10 days

SMILES: O=C(Nc1c(Cl)cncc1Cl)c1ccc(OC(F)F)c(OCC2CC2)c1 [Roflumilast, 3-cyclopropylmethoxy-4-difluoromethoxy-N-(3,5-dichloropyrid-4-yl)benzamide]
- Blood glucose (15 min after glucose application) [1]: 507 mg/dL
- Blood glucose (before glucose application) [1]: 347 mg/dL
- Blood glucose (15 min after glucose application) [2]: 412 mg/dL
- Blood glucose (before glucose application) [2]: 191 mg/dL
- Effect on fasting blood glucose levels (summary in words) (db/db mice): reduce
- Effect on postprandial blood glucose levels (summary in words) (db/db mice): reduce
